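Exposure lasted 48 hours, with cells grown in 96-well plates and compounds tested at five concentrations. GI50 = concentration required for 50% inhibition of growth. TGI is the concentration that stops growth completely.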
What was measured:
Experiment in all cases: inhibition of tumour cell growth, NCI panel, 48 h
MALME-3M melanoma = system: MALME-3M melanoma
SR leukemia = system: SR leukemia
SF-268 CNS = system: SF-268 CNS
U251 CNS = system: U251 CNS
OVCAR-8 ovarian = system: OVCAR-8 ovarian
HS 578T breast = system: HS 578T breast
MDA-MB-231 breast = system: MDA-MB-231 breast
HCT-116 colon = system: HCT-116 colon
DU-145 prostate = system: DU-145 prostate
CCRF-CEM leukemia = system: CCRF-CEM leukemia
CAKI-1 renal = system: CAKI-1 renal
SK-MEL-28 melanoma = system: SK-MEL-28 melanoma
KM12 colon = system: KM12 colon
T-47D breast = system: T-47D breast
NCI/ADR-RES ovarian = system: NCI/ADR-RES ovarian
MDA-MB-435 = system: MDA-MB-435
A549 NSCLC = system: A549 NSCLC
MCF7 breast = system: MCF7 breast
COLO 205 colon = system: COLO 205 colon
NCI-H522 lung = system: NCI-H522 lung
MOLT-4 leukemia = system: MOLT-4 leukemia
EKVX NSCLC = system: EKVX NSCLC
NCI-H226 lung = system: NCI-H226 lung
NCI-H460 lung = system: NCI-H460 lung
SF-539 CNS = system: SF-539 CNS
SK-MEL-2 melanoma = system: SK-MEL-2 melanoma
HCT-15 colon = system: HCT-15 colon
NCI-H23 lung = system: NCI-H23 lung
ACHN renal = system: ACHN renal
786-0 renal = system: 786-0 renal
SK-MEL-5 melanoma = system: SK-MEL-5 melanoma
UO-31 renal = system: UO-31 renal
A498 renal = system: A498 renal
OVCAR-4 ovarian = system: OVCAR-4 ovarian
RXF 393 renal = system: RXF 393 renal
SW-620 colon = system: SW-620 colon
HCC-2998 colon = system: HCC-2998 colon
SNB-19 CNS = system: SNB-19 CNS
UACC-62 melanoma = system: UACC-62 melanoma
HOP-62 NSCLC = system: HOP-62 NSCLC
TK-10 renal = system: TK-10 renal
RPMI-8226 leukemia = system: RPMI-8226 leukemia
LOX IMVI melanoma = system: LOX IMVI melanoma
UACC-257 melanoma = system: UACC-257 melanoma
IGROV1 ovarian = system: IGROV1 ovarian
SN12C renal = system: SN12C renal
SF-295 CNS = system: SF-295 CNS
SNB-75 CNS = system: SNB-75 CNS
HT29 colon = system: HT29 colon
BT-549 breast = system: BT-549 breast
OVCAR-3 ovarian = system: OVCAR-3 ovarian
OVCAR-5 ovarian = system: OVCAR-5 ovarian
SK-OV-3 ovarian = system: SK-OV-3 ovarian
PC-3 prostate = system: PC-3 prostate
K-562 leukemia = system: K-562 leukemia
M14 melanoma = system: M14 melanoma

`ClCc1ccc(Cn2cnc3nc(Cl)nc(Cl)c32)cc1` showed a GI50 (MALME-3M melanoma) of 1600 nM, a TGI (MALME-3M melanoma) of 3240 nM and a GI50 (SR leukemia) of 4160 nM. For the same compound, the TGI (SR leukemia) was > 100000 nM, the GI50 (SF-268 CNS) was 629 nM and the TGI (SF-268 CNS) was 1430 nM. It also gave a GI50 (U251 CNS) of 772 nM, a TGI (U251 CNS) of 1960 nM and a GI50 (OVCAR-8 ovarian) of 1840 nM. The TGI (OVCAR-8 ovarian) was 3660 nM, the GI50 (HS 578T breast) was 19200 nM and the TGI (HS 578T breast) was 44800 nM. The GI50 (MDA-MB-231 breast) was 444 nM, the TGI (MDA-MB-231 breast) was 926 nM and the GI50 (HCT-116 colon) was 235 nM. The TGI (HCT-116 colon) was 1260 nM, the GI50 (DU-145 prostate) was 444 nM and the TGI (DU-145 prostate) was 1120 nM. For the same compound, the GI50 (CCRF-CEM leukemia) was 1790 nM, the TGI (CCRF-CEM leukemia) was 6190 nM and the GI50 (CAKI-1 renal) was 1500 nM. For the same compound, the TGI (CAKI-1 renal) was 2860 nM, the GI50 (SK-MEL-28 melanoma) was 1860 nM and the TGI (SK-MEL-28 melanoma) was 4000 nM. The GI50 (KM12 colon) was 677 nM, the TGI (KM12 colon) was 1480 nM and the GI50 (T-47D breast) was 1360 nM. For the same compound, the TGI (T-47D breast) was 4820 nM, the GI50 (NCI/ADR-RES ovarian) was 1770 nM and the TGI (NCI/ADR-RES ovarian) was 3360 nM. The GI50 (MDA-MB-435) was 1710 nM, the TGI (MDA-MB-435) was 3190 nM and the GI50 (A549 NSCLC) was 1910 nM. The TGI (A549 NSCLC) was 3640 nM, the GI50 (MCF7 breast) was 663 nM and the TGI (MCF7 breast) was 2360 nM. For the same compound, the GI50 (COLO 205 colon) was 5660 nM, the TGI (COLO 205 colon) was > 20500 nM and the GI50 (NCI-H522 lung) was 1850 nM. The TGI (NCI-H522 lung) was 4410 nM, the GI50 (MOLT-4 leukemia) was 1680 nM and the TGI (MOLT-4 leukemia) was 5260 nM. It also gave a GI50 (EKVX NSCLC) of 704 nM, a TGI (EKVX NSCLC) of 1880 nM and a GI50 (NCI-H226 lung) of 946 nM. For the same compound, the TGI (NCI-H226 lung) was 2920 nM, the GI50 (NCI-H460 lung) was 3650 nM and the TGI (NCI-H460 lung) was 9190 nM. It also gave a GI50 (SF-539 CNS) of 593 nM, a TGI (SF-539 CNS) of 1140 nM and a GI50 (SK-MEL-2 melanoma) of 1410 nM. The TGI (SK-MEL-2 melanoma) was 3060 nM, the GI50 (HCT-15 colon) was 481 nM and the TGI (HCT-15 colon) was 1030 nM. For the same compound, the GI50 (NCI-H23 lung) was 1840 nM, the TGI (NCI-H23 lung) was 3650 nM and the GI50 (ACHN renal) was 523 nM. It also gave a TGI (ACHN renal) of 953 nM, a GI50 (786-0 renal) of 417 nM and a TGI (786-0 renal) of 890 nM. The GI50 (SK-MEL-5 melanoma) was 801 nM, the TGI (SK-MEL-5 melanoma) was 3750 nM and the GI50 (UO-31 renal) was 1410 nM. The TGI (UO-31 renal) was 2880 nM, the GI50 (A498 renal) was 4360 nM and the TGI (A498 renal) was 8480 nM. It also gave a GI50 (OVCAR-4 ovarian) of 1570 nM, a TGI (OVCAR-4 ovarian) of 3030 nM and a GI50 (RXF 393 renal) of 1300 nM. It also gave a TGI (RXF 393 renal) of 3240 nM, a GI50 (SW-620 colon) of 1470 nM and a TGI (SW-620 colon) of 3280 nM. The GI50 (HCC-2998 colon) was 1620 nM, the TGI (HCC-2998 colon) was 3180 nM and the GI50 (SNB-19 CNS) was 3010 nM. The GI50 (UACC-62 melanoma) was 974 nM, the TGI (UACC-62 melanoma) was 2540 nM and the GI50 (HOP-62 NSCLC) was 1980 nM. For the same compound, the TGI (HOP-62 NSCLC) was 3740 nM, the GI50 (TK-10 renal) was 430 nM and the TGI (TK-10 renal) was 932 nM. For the same compound, the GI50 (RPMI-8226 leukemia) was 1680 nM, the TGI (RPMI-8226 leukemia) was 28300 nM and the GI50 (LOX IMVI melanoma) was 487 nM. It also gave a TGI (LOX IMVI melanoma) of 1230 nM, a GI50 (UACC-257 melanoma) of 1950 nM and a TGI (UACC-257 melanoma) of 4330 nM. For the same compound, the GI50 (IGROV1 ovarian) was 1370 nM, the TGI (IGROV1 ovarian) was 2720 nM and the GI50 (SN12C renal) was 1410 nM. The TGI (SN12C renal) was 3150 nM, the GI50 (SF-295 CNS) was 1750 nM and the TGI (SF-295 CNS) was 3270 nM. For the same compound, the GI50 (SNB-75 CNS) was 656 nM, the TGI (SNB-75 CNS) was 1480 nM and the GI50 (HT29 colon) was 970 nM. It also gave a GI50 (BT-549 breast) of 1870 nM, a TGI (BT-549 breast) of 3480 nM and a GI50 (OVCAR-3 ovarian) of 687 nM. For the same compound, the TGI (OVCAR-3 ovarian) was 1450 nM, the GI50 (OVCAR-5 ovarian) was 1800 nM and the TGI (OVCAR-5 ovarian) was 3540 nM. It also gave a GI50 (SK-OV-3 ovarian) of 2360 nM, a TGI (SK-OV-3 ovarian) of 5700 nM and a GI50 (PC-3 prostate) of 2900 nM. The TGI (PC-3 prostate) was 7980 nM, the GI50 (K-562 leukemia) was 2520 nM and the TGI (K-562 leukemia) was > 28800 nM. It also gave a GI50 (M14 melanoma) of 1310 nM and a TGI (M14 melanoma) of 2830 nM.
